# Results published in the supplement of paper PMC13207355.
# How the values were obtained:
# Conditions in all cases: exposure time: 72 h
# E31 [1] = patient-derived glioblastoma stem cells of proneural subtype; assay: phenotypic distance (Euclidean, principal components) from DMSO controls (arbitrary units); higher = stronger morphological change
# E28 [2] = patient-derived glioblastoma stem cells of classical subtype; assay: as above
# E57 [3] = patient-derived glioblastoma stem cells of mesenchymal subtype; assay: as above
# FT3469 [4] = normal neural stem cell line; assay: as above
# E21 [5] = patient-derived glioblastoma stem cells of mesenchymal subtype; assay: as above
# E13 [6] = patient-derived glioblastoma stem cells of classical subtype; assay: as above
# E34 [7] = patient-derived glioblastoma stem cells of proneural subtype; assay: as above
# E31 [8] = assay: surviving fraction (nuclei count normalised to DMSO); higher = more cells surviving (less toxic)
# E28 [9] = assay: as above
# E57 [10] = assay: as above
# FT3469 [11] = assay: as above
# E21 [12] = assay: as above
# E13 [13] = assay: as above
# E34 [14] = assay: as above
# 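Wherever phenotypic distance (Euclidean, principal components) from DMSO controls is given: cell Painting imaging in 384-well plates, CellProfiler features reduced to at least 20 principal components, Euclidean distance versus same-plate DMSO vehicle wells (0.1% v/v), median over six images per well.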
# 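Wherever surviving fraction (nuclei count normalised to DMSO) is given: nuclei counted by high-content imaging of Hoechst-stained cells in laminin-coated 384-well plates, relative to 0.1% DMSO vehicle wells, with staurosporine as cell-death control.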
smiles,measurement,setting,value
Nc1ncnc2c1c(-c1ccc(Oc3ccccc3)cc1)cn2C1CCCC1,phenotypic distance,E31 [1]; 4.1 nM,0.613
same,phenotypic distance,E31 [1]; 12.3 nM,0.704
same,phenotypic distance,E31 [1]; 37 nM,0.739
same,phenotypic distance,E31 [1]; 111.1 nM,0.965
same,phenotypic distance,E31 [1]; 333.3 nM,0.777
same,phenotypic distance,E31 [1]; 1000 nM,1.23
same,phenotypic distance,E31 [1]; 3000 nM,0.466
same,phenotypic distance,E28 [2]; 4.1 nM,0.587
same,phenotypic distance,E28 [2]; 12.3 nM,0.603
same,phenotypic distance,E28 [2]; 37 nM,0.442
same,phenotypic distance,E28 [2]; 111.1 nM,0.847
same,phenotypic distance,E28 [2]; 333.3 nM,0.677
same,phenotypic distance,E28 [2]; 1000 nM,0.737
same,phenotypic distance,E28 [2]; 3000 nM,0.765
same,phenotypic distance,E57 [3]; 4.1 nM,0.461
same,phenotypic distance,E57 [3]; 12.3 nM,1.24
same,phenotypic distance,E57 [3]; 37 nM,1
same,phenotypic distance,E57 [3]; 111.1 nM,1.29
same,phenotypic distance,E57 [3]; 333.3 nM,0.478
same,phenotypic distance,E57 [3]; 1000 nM,0.867
same,phenotypic distance,E57 [3]; 3000 nM,0.813
same,phenotypic distance,FT3469 [4]; 4.1 nM,0.487
same,phenotypic distance,FT3469 [4]; 12.3 nM,1.13
same,phenotypic distance,FT3469 [4]; 37 nM,0.764
same,phenotypic distance,FT3469 [4]; 111.1 nM,0.833
same,phenotypic distance,FT3469 [4]; 333.3 nM,1.17
same,phenotypic distance,FT3469 [4]; 1000 nM,0.824
same,phenotypic distance,FT3469 [4]; 3000 nM,0.929
same,phenotypic distance,E21 [5]; 4.1 nM,0.617
same,phenotypic distance,E21 [5]; 12.3 nM,0.6
same,phenotypic distance,E21 [5]; 37 nM,0.721
same,phenotypic distance,E21 [5]; 111.1 nM,0.773
same,phenotypic distance,E21 [5]; 333.3 nM,0.934
same,phenotypic distance,E21 [5]; 1000 nM,1.32
same,phenotypic distance,E21 [5]; 3000 nM,0.949
same,phenotypic distance,E13 [6]; 4.1 nM,0.425
same,phenotypic distance,E13 [6]; 12.3 nM,1.04
same,phenotypic distance,E13 [6]; 37 nM,0.606
same,phenotypic distance,E13 [6]; 111.1 nM,0.653
same,phenotypic distance,E13 [6]; 333.3 nM,0.532
same,phenotypic distance,E13 [6]; 1000 nM,0.572
same,phenotypic distance,E13 [6]; 3000 nM,0.738
same,phenotypic distance,E34 [7]; 4.1 nM,0.654
same,phenotypic distance,E34 [7]; 12.3 nM,0.927
same,phenotypic distance,E34 [7]; 37 nM,0.674
same,phenotypic distance,E34 [7]; 111.1 nM,0.841
same,phenotypic distance,E34 [7]; 333.3 nM,0.534
same,phenotypic distance,E34 [7]; 1000 nM,0.71
same,phenotypic distance,E34 [7]; 3000 nM,0.746
same,surviving fraction,E31 [8]; 4.1 nM,1.06
same,surviving fraction,E31 [8]; 12.3 nM,1.07
same,surviving fraction,E31 [8]; 37 nM,0.999
same,surviving fraction,E31 [8]; 111.1 nM,0.95
same,surviving fraction,E31 [8]; 333.3 nM,0.97
same,surviving fraction,E31 [8]; 1000 nM,0.936
same,surviving fraction,E31 [8]; 3000 nM,0.884
same,surviving fraction,E28 [9]; 4.1 nM,1.07
same,surviving fraction,E28 [9]; 12.3 nM,0.954
same,surviving fraction,E28 [9]; 37 nM,0.988
same,surviving fraction,E28 [9]; 111.1 nM,0.704
same,surviving fraction,E28 [9]; 333.3 nM,1.2
same,surviving fraction,E28 [9]; 1000 nM,0.86
same,surviving fraction,E28 [9]; 3000 nM,0.854
same,surviving fraction,E57 [10]; 4.1 nM,0.986
same,surviving fraction,E57 [10]; 12.3 nM,1.06
same,surviving fraction,E57 [10]; 37 nM,1.08
same,surviving fraction,E57 [10]; 111.1 nM,1.06
same,surviving fraction,E57 [10]; 333.3 nM,1.03
same,surviving fraction,E57 [10]; 1000 nM,0.942
same,surviving fraction,E57 [10]; 3000 nM,0.951
same,surviving fraction,FT3469 [11]; 4.1 nM,0.964
same,surviving fraction,FT3469 [11]; 12.3 nM,1.04
same,surviving fraction,FT3469 [11]; 37 nM,0.976
same,surviving fraction,FT3469 [11]; 111.1 nM,0.901
same,surviving fraction,FT3469 [11]; 333.3 nM,0.875
same,surviving fraction,FT3469 [11]; 1000 nM,0.967
same,surviving fraction,FT3469 [11]; 3000 nM,0.895
same,surviving fraction,E21 [12]; 4.1 nM,0.864
same,surviving fraction,E21 [12]; 12.3 nM,1.05
same,surviving fraction,E21 [12]; 37 nM,1.03
same,surviving fraction,E21 [12]; 111.1 nM,0.984
same,surviving fraction,E21 [12]; 333.3 nM,0.967
same,surviving fraction,E21 [12]; 1000 nM,1.01
same,surviving fraction,E21 [12]; 3000 nM,0.85
same,surviving fraction,E13 [13]; 4.1 nM,0.996
same,surviving fraction,E13 [13]; 12.3 nM,1.07
same,surviving fraction,E13 [13]; 37 nM,0.893
same,surviving fraction,E13 [13]; 111.1 nM,0.884
same,surviving fraction,E13 [13]; 333.3 nM,1.02
same,surviving fraction,E13 [13]; 1000 nM,0.997
same,surviving fraction,E13 [13]; 3000 nM,0.855
same,surviving fraction,E34 [14]; 4.1 nM,1.23
same,surviving fraction,E34 [14]; 12.3 nM,0.986
same,surviving fraction,E34 [14]; 37 nM,1.18
same,surviving fraction,E34 [14]; 111.1 nM,1.03
same,surviving fraction,E34 [14]; 333.3 nM,0.93
same,surviving fraction,E34 [14]; 1000 nM,0.958
same,surviving fraction,E34 [14]; 3000 nM,0.916
